For two molecules, EC50 results are on record in ChEMBL document CHEMBL1149748, “Studies on Formosan soft corals. II. Cytotoxic cembranolides from the soft coral Lobophytum michaelae” (1992).

Molecules are shown by their SMILES. Values after ≈ are worked out from the molar mass of the structure shown.

What all share (assay type): functional
Assay [1] relates to HT-29. Put plainly: Cytotoxicity against human HT-29 cells after 6 days by MTT assay. The note with it: HT-29, 144 h, read-out: ED50 (the source's name). (Tetrazolium dyes change colour on reduction, which living cells bring about.)
Assay [2] concerns P388. Put plainly: Cytotoxicity against mouse P388 cells after 3 days by MTT assay. The note with it: P388, 72 h, read-out: ED50 (the source's name).
For assay [3], the system named is A549. Put plainly: Cytotoxicity against human A549 cells after 6 days by MTT assay. The note with it: A549, 144 h, read-out: ED50 (the source's name).
Assay [4] deals with KB. Put plainly: Cytotoxicity against human KB cells after 3 days by MTT assay. The note with it: 72 h, read-out: ED50 (the source's name).

As to `C=C1C(=O)O[C@@H]2[C@H]1[C@@H](OC(C)=O)C/C(C)=C/[C@@H](OC(C)=O)C/C(C)=C/CC[C@@]1(C)O[C@H]21` [LOBOMICHAOLIDE], the EC50 in assay [1] stood at 0.37 µg/mL (≈ 0.855 µM); in assay [2], 0.34 µg/mL (≈ 0.786 µM); in assay [3], 0.38 µg/mL (≈ 0.879 µM); in assay [4], 0.59 µg/mL (≈ 1.36 µM).

For `C=C1C(=O)O[C@@H]2[C@H]1[C@H](OC(C)=O)C/C(C)=C/C[C@H](OC(C)=O)/C(C)=C/C[C@@H](OC(C)=O)[C@]1(C)O[C@@H]21` [CRASSOLIDE], the EC50 was 0.26 µg/mL (≈ 0.53 µM) in assay [1], 0.08 µg/mL (≈ 0.163 µM) in assay [2], 0.39 µg/mL (≈ 0.795 µM) in assay [3] and 0.85 µg/mL (≈ 1.73 µM) in assay [4].
